Assay results taken from publication PMC10940605, “Design, synthesis and in vitro anticancer activity of some new lomefloxacin derivatives” (Scientific Reports, 2024).

How the values were obtained:
MDA-MB-468 = assay: NCI-60 SRB screen; assay type: cell-based; details: Homo sapiens; MDA-MB-468, 10^–5 Molar; read-out: Percent growth inhibition
Procedure: (§1) All newly synthesized compounds were selected and screened for anticancer activity against 60 human cancer cell lines representing 9 types of tumors including leukemia, melanoma, lung, colon, CNS, ovarian, renal, prostate, and breast cancers at the National Cancer Institute (NCI), Bethesda, USA. Screening was performed utilizing a single dose (10^−5 M concentration) and cells were incubated for 48 h. The end point was determined using sulforhodamine B (SRB) dye.
(§2) In this study, all the 16 newly synthesized compounds were submitted to the National Cancer Institute (USA) for anticancer evaluation and were selected and evaluated using 60 different human tumor cell lines representing lung, colon, CNS, ovarian, renal, prostate, breast cancers as well as leukemia and melanoma. A single dose (10^–5 Molar) was used for the initial screening for evaluation of anticancer activity. The 60 human cancer cell lines were provided by the national cancer institute biomedical research campus in Frederick, Maryland.
(§3) 60 different human cancer cell lines were utilized to screen the newly synthesized compounds for anticancer activity according to the previously reported standard procedure[24]–[26] as follows: • 96 well microtiter plates were used to inoculate the cells at […] ranging from 4000–5000 cells/well depending on the replication time of individual cell lines. Roswell Park Memorial Institute culture medium (RPMI 1640 medium) containing 2 mM L-glutamine and fetal bovine serum was used to grow the cells at 37 °C, 5% CO2, 95% air and 100% relative humidity for 24 h. • Fixation of cells in two plates of each cell line in situ was done using trichloroacetic acid (TCA). This represented the measurement of cell population at the time of drug addition (Tz). • Dimethyl sulfoxide (DMSO) was used to dissolve the synthesized compounds at 400-fold the desired final maximum concentration and frozen prior to use. This frozen concentrate was melted and diluted to twice the final concentration with complete medium containing 50 µg/mL gentamycin at time of drug addition. • The final compound concentration was obtained by adding 100 µL of the synthesized compounds to the appropriate microtiter wells already containing 100 µL followed by incubation of the plates at 37 °C, 5% CO2, 95% air and 100% relative humidity for 48 h. • Fixation of the cells was achieved by gentle addition of 50 µL of cold 50% (w/v) TCA followed by incubation for 60 min at 4 °C. The supernatant was then discarded and the plates are washed 5 times with tap water and air dried. • Sulphorhodamine B (SRB) solution (100 µL) at 0.4% (w/v) in 1% acetic acid was added to each plate followed by incubation for 10 min at room temperature. The unbound dye was then removed by washing five times with 1% acetic acid and plates were air dried. • Dissolution of the bound stain was done using […] trizma base and the absorbance was read at […] wavelength using an automated plate reader. • The percentage growth inhibition was calculated as follows: Ti-Tz/C-Tz×100forconcentrationswhichTi≥Tz Ti-Tz/Tz×100forconcentrationswhichTi<Tz • Time zero (Tz) • Control growth (C) • Test growth in the presence of drug (Ti)

786-0 = assay: NCI-60 SRB screen; assay type: cell-based; details: Homo sapiens; 786-0, 10^–5 Molar; read-out: Percent growth inhibition
Procedure: as §1, §2, §3

SF-295 = assay: NCI-60 SRB screen; assay type: cell-based; details: Homo sapiens; SF-295, 10^–5 Molar; read-out: Percent growth inhibition
Procedure: as §1, §2, §3

CAKI-1 = assay: NCI-60 SRB screen; assay type: cell-based; details: Homo sapiens; CAKI-1, 10^–5 Molar; read-out: Percent growth inhibition
Procedure: as §1, §2, §3

SNB-19 = assay: NCI-60 SRB screen; assay type: cell-based; details: Homo sapiens; SNB-19, 10^–5 Molar; read-out: Percent growth inhibition
Procedure: as §1, §2, §3

NCI/ADR-RES = assay: NCI-60 SRB screen; assay type: cell-based; details: Homo sapiens, 10^–5 Molar, read-out: Percent growth inhibition
Procedure: as §1, §2, §3

HOP-62 = assay: NCI-60 SRB screen; assay type: cell-based; details: Homo sapiens; HOP-62, 10^–5 Molar; read-out: Percent growth inhibition
Procedure: as §1, §2, §3

OVCAR-5 = assay: NCI-60 SRB screen; assay type: cell-based; details: Homo sapiens; OVCAR-5, 10^–5 Molar; read-out: Percent growth inhibition
Procedure: as §1, §2, §3

OVCAR-4 = assay: NCI-60 SRB screen; assay type: cell-based; details: Homo sapiens; OVCAR-4, 10^–5 Molar; read-out: Percent growth inhibition
Procedure: as §1, §2, §3

MDA-MB-435 = assay: NCI-60 SRB screen; assay type: cell-based; details: Homo sapiens; MDA-MB-435, 10^–5 Molar; read-out: Percent growth inhibition
Procedure: as §1, §2, §3

SF-268 = assay: NCI-60 SRB screen; assay type: cell-based; details: Homo sapiens; SF-268, 10^–5 Molar; read-out: Percent growth inhibition
Procedure: as §1, §2, §3

NCI-H460 = assay: NCI-60 SRB screen; assay type: cell-based; details: Homo sapiens; NCI-H460, 10^–5 Molar; read-out: Percent growth inhibition
Procedure: as §1, §2, §3

SNB-75 = assay: NCI-60 SRB screen; assay type: cell-based; details: Homo sapiens; SNB-75, 10^–5 Molar; read-out: Percent growth inhibition
Procedure: as §1, §2, §3

T-47D = assay: NCI-60 SRB screen; assay type: cell-based; details: Homo sapiens, T47D, 10^–5 Molar, read-out: Percent growth inhibition
Procedure: as §1, §2, §3

HS 578T = assay: NCI-60 SRB screen; assay type: cell-based; details: Homo sapiens, 10^–5 Molar, read-out: Percent growth inhibition
Procedure: as §1, §2, §3

NCI-H226 = assay: NCI-60 SRB screen; assay type: cell-based; details: Homo sapiens; NCI-H226, 10^–5 Molar; read-out: Percent growth inhibition
Procedure: as §1, §2, §3

LOX IMVI = assay: NCI-60 SRB screen; assay type: cell-based; details: Homo sapiens, 10^–5 Molar, read-out: Percent growth inhibition
Procedure: as §1, §2, §3

SK-MEL-28 = assay: NCI-60 SRB screen; assay type: cell-based; details: Homo sapiens; SK-MEL-28, 10^–5 Molar; read-out: Percent growth inhibition
Procedure: as §1, §2, §3

MALME-3M = assay: NCI-60 SRB screen; assay type: cell-based; details: Homo sapiens, 10^–5 Molar, read-out: Percent growth inhibition
Procedure: as §1, §2, §3

HOP-92 = assay: NCI-60 SRB screen; assay type: cell-based; details: Homo sapiens; HOP-92, 10^–5 Molar; read-out: Percent growth inhibition
Procedure: as §1, §2, §3

SMILES | melting point | inhibition at 10 µM (MDA-MB-468) | inhibition at 10 µM (786-0) | inhibition at 10 µM (SF-295) | inhibition at 10 µM (CAKI-1) | inhibition at 10 µM (SNB-19) | inhibition at 10 µM (NCI/ADR-RES) | inhibition at 10 µM (HOP-62) | inhibition at 10 µM (OVCAR-5) | inhibition at 10 µM (OVCAR-4) | inhibition at 10 µM (MDA-MB-435) | inhibition at 10 µM (SF-268) | inhibition at 10 µM (NCI-H460) | inhibition at 10 µM (SNB-75) | inhibition at 10 µM (T-47D) | inhibition at 10 µM (HS 578T) | inhibition at 10 µM (NCI-H226) | inhibition at 10 µM (LOX IMVI) | inhibition at 10 µM (MALME-3M) | also measured
CCn1cc(C(=O)O)c(=O)c2cc(F)c(N3CCN(C(=O)c4ccc(Br)cc4)C(C)C3)c(F)c21 (stereo not drawn) [Compound 7b, 7-(4-(4-Bromobenzoyl)-3-methylpiperazin-1-yl)-1-ethyl-6,8-difluoro-4-oxo-1,4-dihydroquinoline-3-carboxylic acid] | 271 to 273 °C | 3.31% | 0.58% | 6.71% | 13.6% | 4.45% | 9.07% | 5.56% | 2.96% | 16.9% | 3.15% | 6.79% | 1.2% | 2.37% | 6.95% | 4.22% | 1.95% |  |  | 
CCn1cc(C(=O)O)c(=O)c2cc(F)c(N3CCN(C(=O)c4ccc(Cl)cc4)C(C)C3)c(F)c21 (stereo not drawn) [Compound 7c, 7-(4-(4-Chlorobenzoyl)-3-methylpiperazin-1-yl)-1-ethyl-6,8-difluoro-4-oxo-1,4-dihydroquinoline-3-carboxylic acid] | 282 to 284 °C | 3.92% |  | 3.13% | 14.9% | 6.42% | 13.8% | 2.13% | 2.81% | 18.9% | 6.54% | 7.02% | 1.66% | 9.12% | 5.3% | 5.57% | 7.33% | 4% | 1.6% | inhibition at 10 µM (SK-MEL-28): 2.92%
CCn1cc(C(=O)O)c(=O)c2cc(F)c(N3CCN(C(=O)c4ccc([N+](=O)[O-])cc4)C(C)C3)c(F)c21 (stereo not drawn) [Compound 7d, 1-Ethyl-6,8-difluoro-7-(3-methyl-4-(4-nitrobenzoyl)piperazin-1-yl)-4-oxo-1,4-dihydroquinoline-3-carboxylic acid] | 215 to 217 °C | 2.79% | 0.6% | 2.82% | 17.6% | 3.31% | 3.34% | 7.44% | 9.27% | 8.82% |  | 7.01% |  | 13.9% | 4.73% | 8.17% | 3.95% | 9.8% | 0.88% | inhibition at 10 µM (HOP-92): 0.34%
